Patent publication EP1288226A1, “Modification of the expression levels of Toll-like receptor familiy members for influencing neurodegeneration and neuroprotection in the human central nervous system” (NEDERLANDSE ORGANISATIE VOOR …, priority 2001, dated 2003)

How the values were obtained:
Assay in all cases: TLR expression in primary human microglia after stimulation, semi-quantitative RT-PCR
Assay type in all cases: cell-based
Conditions in all cases: aggregated peptide 5 µM, 6 h or 24 h
TLR3 = system: TLR3
Description: (§1) Primary human microglia, oligodendrocytes and astrocytes used in this study were isolated from the human white matter samples obtained from the patients listed in Table 1, as previously described (Bajramovic et al., 2000a and 2000b; De Groot et al., 2000). Briefly, brain tissues dissected from corpus callosum or subcortical white matter were collected and blood vessels were removed. After a 20-min digestion in 0.25 % (w/v) trypsine (Sigma, St. Louis, MO) and 0.1 mg/ml DNAse (Boehringer Mannheim, Mannheim, Germany) the cell suspension was gently triturated and washed with DMEM/HAM-F10 medium containing 10 % (v/v) FCS and antibiotic supplements. After passage through a 100-µm filter, myelin was removed by Percoll gradient centrifugation. Erythrocytes were lysed by a 15-min incubation on ice with 155 mM NH4Cl, 1 mM KHCO3, 0.2 % (w/v) BSA.
(§2) Primary cultures of microglia, astrocytes and oligodendrocytes were set up in DMEM/HAM-F10 medium containing 10 % (v/v) FCS and antibiotic supplements. Recombinant human granulocyte-macrophage colony stimulating factor (rhGM-CSF, PeproTech Inc, USA) was added to microglial cultures every 3 days at a final concentration of […]. Cells were analyzed for TLR expression after 10-14 days following the start of the culture.
(§3) Total cellular RNA was isolated from human glia cells using RNAZol™B (Campro scientific, Veenendaal, The Netherlands) and 2.5 µg RNA was reverse transcribed, using reverse transcription system (Promega, Madison, USA). PCR amplifications were performed on 1 µl copy DNA and 49 µl PCR mix (40 µl milliQ + 5 µl MgCl2 (see below for concentration) + 1 µl 10 mM dNTP mix + 1 µl 20 pmol/µl primer + 1 µl 20 pmol/µl anti sense primer and 0.2 µl taq polymerase). For β-actin, TLR1, TLR2, TLR3, TLR5, TLR6, TLR7 and TLR 9, 22 mM MgCl2 was used, for TLR4, 15 mM MgCl2 and for TLR8, 30 mM MgCl2. Amounts of TLR-encoding mRNA for each TLR were calculated by comparing the yield of each amplicon after 40 cycles to that for β-actin, and by determining the amounts of β-actin encoding mRNA in each sample by competitive quantitative RT-PCR as described previously (Bajramovic et al., 2000a; Bajramovic et al., 2000b).
(§4) Amyloid-β-protein-derived peptide 1-42 (Bachem, Bubendorf, Switzerland) was dissolved in water at 1 mM and kept at 37°C for 1 week to allow for aggregation to occur. The aggregated peptide was added to cultured microglia at a final concentration of 5 µM and TLR expression was determined as described above after varying periods of incubation time. As another CNS-derived stimulant, human recombinant alpha B-crystallin (prepared by TNO Prevention and Health, Leiden) was used at a final concentration of 15 µg/mL.

TLR2 = system: TLR2
Description: as §1, §2, §3, §4

other TLR = system: other TLR
Description: as §1, §2, §3, §4

[1] = listed as Amyloid β protein-derived peptide 1-42
[2] = listed as amyloid β-protein derived peptide 1-42

## amyloid β protein-derived peptide 1-42: Amyloid-β-protein-derived peptide 1-42 (Bachem), dissolved in water at 1 mM and kept at 37°C for 1 week to allow aggregation
TLR3
  levels of TLR3-encoding mRNA: stronger inductive effects
TLR3; [1]
  levels of TLR3-encoding mRNA: elevated expression
TLR3; [2]
  levels of TLR3-encoding mRNA: strong effects
TLR2
  levels of TLR2-encoding mRNA: rapid mild inductive effect
TLR2; [1]
  levels of TLR2-encoding mRNA: elevated expression
TLR2; [2]
  levels of TLR2-encoding mRNA: strong effects
Other TLR
  expression of mRNA encoding other TLR: not influenced
Other TLR; [1]
  expression of mRNA encoding other TLR: not affecting
